Assay results reported in patent US8492384B2 (Korea Institute of Science and Technology, priority 2008, dated 2013).

Columns and labels:
Format in all cases: cell-based
[1] = biological target: T1, α1G T-type calcium channels (Homo sapiens, UniProt O43497); test: T-type calcium channel activity using the FDSS6000 (HTS, Fluo-3/AM, KCl-induced intracellular calcium change); conditions: percent inhibition at 10 μM, HEK293 cells stably expressing α1G T-type calcium channels and Kir2.1, KCl 75 mM activation; for inhibition at 10 µM: read-out: FDSS (%, 10 μM)
T1 construct: host or cells: HEK293
T1 sequence (O43497 whole entry): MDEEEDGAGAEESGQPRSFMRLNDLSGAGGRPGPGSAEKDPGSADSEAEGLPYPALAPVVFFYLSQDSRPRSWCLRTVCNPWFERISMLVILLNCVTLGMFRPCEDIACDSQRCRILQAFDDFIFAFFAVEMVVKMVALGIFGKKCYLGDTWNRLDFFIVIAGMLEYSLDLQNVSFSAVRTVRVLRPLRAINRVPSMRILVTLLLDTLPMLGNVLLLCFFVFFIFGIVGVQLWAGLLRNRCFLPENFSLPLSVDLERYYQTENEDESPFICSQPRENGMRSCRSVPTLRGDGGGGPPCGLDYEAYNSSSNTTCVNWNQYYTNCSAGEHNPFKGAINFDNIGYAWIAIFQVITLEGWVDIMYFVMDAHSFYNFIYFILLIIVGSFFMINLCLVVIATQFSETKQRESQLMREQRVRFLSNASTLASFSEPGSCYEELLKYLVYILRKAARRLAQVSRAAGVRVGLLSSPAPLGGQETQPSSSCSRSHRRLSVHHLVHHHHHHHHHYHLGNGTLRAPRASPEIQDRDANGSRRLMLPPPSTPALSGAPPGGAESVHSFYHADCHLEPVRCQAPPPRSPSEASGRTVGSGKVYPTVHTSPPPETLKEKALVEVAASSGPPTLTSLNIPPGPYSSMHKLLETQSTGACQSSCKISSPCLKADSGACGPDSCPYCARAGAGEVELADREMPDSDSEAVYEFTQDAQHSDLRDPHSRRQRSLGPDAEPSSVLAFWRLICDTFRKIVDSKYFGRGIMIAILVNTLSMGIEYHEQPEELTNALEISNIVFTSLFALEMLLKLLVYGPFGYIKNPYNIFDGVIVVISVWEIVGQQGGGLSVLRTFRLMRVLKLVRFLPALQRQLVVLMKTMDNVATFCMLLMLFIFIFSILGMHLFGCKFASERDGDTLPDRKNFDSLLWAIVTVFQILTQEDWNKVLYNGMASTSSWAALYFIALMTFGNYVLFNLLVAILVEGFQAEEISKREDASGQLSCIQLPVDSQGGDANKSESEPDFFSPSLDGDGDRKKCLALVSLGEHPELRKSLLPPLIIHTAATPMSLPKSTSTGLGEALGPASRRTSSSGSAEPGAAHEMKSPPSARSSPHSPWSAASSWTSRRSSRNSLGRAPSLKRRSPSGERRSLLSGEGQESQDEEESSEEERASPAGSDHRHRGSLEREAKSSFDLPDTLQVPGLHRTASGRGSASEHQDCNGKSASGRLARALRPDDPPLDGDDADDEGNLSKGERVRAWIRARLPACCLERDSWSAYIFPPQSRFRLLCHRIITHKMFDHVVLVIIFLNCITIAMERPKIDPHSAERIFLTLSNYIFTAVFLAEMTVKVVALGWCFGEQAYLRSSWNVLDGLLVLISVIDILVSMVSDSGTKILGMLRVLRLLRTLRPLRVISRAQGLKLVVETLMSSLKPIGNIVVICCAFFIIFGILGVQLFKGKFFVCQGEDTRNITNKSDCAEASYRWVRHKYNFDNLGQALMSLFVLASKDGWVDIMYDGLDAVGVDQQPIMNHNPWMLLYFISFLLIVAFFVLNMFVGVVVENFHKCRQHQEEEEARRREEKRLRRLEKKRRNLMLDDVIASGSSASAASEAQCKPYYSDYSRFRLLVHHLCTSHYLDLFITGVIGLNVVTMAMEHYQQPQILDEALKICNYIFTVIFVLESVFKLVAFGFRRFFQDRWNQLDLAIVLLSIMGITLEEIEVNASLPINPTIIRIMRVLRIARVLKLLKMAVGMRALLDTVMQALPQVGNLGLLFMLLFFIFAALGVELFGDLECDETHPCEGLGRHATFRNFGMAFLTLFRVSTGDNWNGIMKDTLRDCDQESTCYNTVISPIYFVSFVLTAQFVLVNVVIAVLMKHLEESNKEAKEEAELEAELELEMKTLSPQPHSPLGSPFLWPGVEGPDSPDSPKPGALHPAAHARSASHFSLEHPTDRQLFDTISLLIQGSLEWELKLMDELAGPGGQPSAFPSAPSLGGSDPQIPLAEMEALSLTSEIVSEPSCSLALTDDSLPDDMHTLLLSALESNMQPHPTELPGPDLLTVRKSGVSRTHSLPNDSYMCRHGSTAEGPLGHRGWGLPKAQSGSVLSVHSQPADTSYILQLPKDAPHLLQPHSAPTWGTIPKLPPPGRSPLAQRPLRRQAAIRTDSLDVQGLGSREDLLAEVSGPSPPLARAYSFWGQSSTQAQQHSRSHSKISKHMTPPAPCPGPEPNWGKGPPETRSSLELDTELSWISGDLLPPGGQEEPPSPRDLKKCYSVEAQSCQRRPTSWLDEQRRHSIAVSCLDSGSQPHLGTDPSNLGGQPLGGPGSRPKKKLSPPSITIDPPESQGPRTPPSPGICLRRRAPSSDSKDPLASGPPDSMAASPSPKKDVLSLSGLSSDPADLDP
Protocol: (§1) The novel compounds of the present invention presented as the formula 1 were tested for their antagonistic activities against T-type calcium channels using the methods described below. More specifically, the synthesized compounds were screened as follows: First, as a primary screening, the compounds having 40% or higher of antagonistic activities against T-type calcium channels were selected using the FDSS6000, a high throughput screening (HTS) device. Then, as a secondary screening, the IC50 (effective inhibitory concentration) values were obtained using the electrophysiological methods.
1) Methods for the Measurements of T-Type Calcium Channel Activity Using the FDSS6000
12 to 24 hours prior to the FDSS-based HTS assay, HEK293 cells stably expressing both α1G T-type calcium channels and Kir2.1 channels (α1G cell line: KCTC 10519BP, KRIBB (Korea Research Institute of Bioscience and Biotechnology) (GENE BANK) were seeded onto the 96-well plate coated with poly-L-lysine (0.05 mg/mL) at a density of 4×10^4 cells/well using a cell distributor (Titertek, USA). On the following day, the cells attached onto the 96-well plate were washed three times with a HEPES-buffered solution (150 mM NaCl, 5 mM KCl, 1 mM MgCl2, 2 mM CaCl2, 10 mM HEPES, 10 mM glucose, and pH 7.4) using an automatic 96-well plate washer (BioTek, USA), and then labeled with a fluorescent calcium indicator dye, Fluo-3/AM (5 μM) and 0.001% Pluronic F-127 in a HEPES-buffered solution at room temperature for 1 hour and then washed again with a HEPES-buffered solution twice. 10 minutes prior to the FDSS6000 measurements, the cells was washed with a HEPES-buffered solution containing 10 mM CaCl2 once and the final volume was adjusted.
In addition to the 96-well plates with cells, the two drug plates were prepared: one containing KCl (final concentration of 75 mM) for the activation of T-type calcium channels, and the other containing testing compounds (blocking agents of T-type calcium channels). Since most cell-based HTS devices are provided with a liquid application system for drug injection but not with a liquid absorption system, the KCl solution and the blocking agents for screening were prepared at concentrations five times higher than the final concentrations in the 10 mM CaCl2 HEPES-buffered solution, and then diluted in the cell plate, and the activities were measured. The specific method of the FDSS6000 measurements is as follows: For the FDSS6000 measurements, after the 20-sec baseline recordings, cells were preincubated with drugs for 75 seconds and the change in intracellular calcium concentration induced by KCl was measured. The percent inhibition by a test compound was calculated as integrated values of 340/380 fluorescent ratio of untreated and drug-treated cells. The control drug was 10 μM of Mibefradil®.
In details, cells were selectively exposed to 340 nm and 380 nm light excited by 4 xenon lamps installed in FDSS6000 using a computer-controlled filter wheel. The emitter fluorescence light through a 515 nm long-pass filter was passed by a freezing digital CCD camera mounted on the device. Data were collected every 1.23 seconds, and an average value of 340/380 fluorescent ratio for each well was obtained using a digital fluorescent analyzer. Data acquisition and analysis were performed using a program provided by Hamamatsu Photonics.

[2] = biological target: T1, α1G T-type calcium channels; test: T-type calcium channel activity using electrophysiological whole-cell patch-clamp technique; conditions: percent inhibition of inward peak currents, HEK293 cells expressing α1G, head prints 100 μM
[3] = biological target: T1, α1G T-type calcium channels; test: as above; conditions: HEK293 cells expressing α1G T-type calcium channels
Protocol: as §1
2) Methods for the Measurements of T-Type Calcium Channel Activity Using an Electrophysiological Whole-Cell Patch-Clamp Technique
HEK293 cells stably expressing T-type calcium channels were cultured in DMEM (Dulbecco's modified Eagle's medium) containing 10% (v/v) fetal bovine serum and 1% penicillin/streptomycin (v/v) in humidified 5% CO2 at 36.5° C. Cells expressing α1GT-type calcium channels were selected using G-418 (0.5 mg/mL) in the culture medium. The culture medium was replaced with a fresh one every 3-4 days, and cells were subcultured every week.
Cells were seeded onto the coverglass coated with poly-L-lysine (0.5 mg/mL) for the measurements of T-type calcium channel activity 2-7 days prior to the recordings. Whole-cell recordings of T-type calcium channel currents were performed using an EPC-9 patch clamp amplifier (HEKA, Germany). Whole-cell currents were recorded using micropipettes with resistance of 3-4 MΩ with the pipette (intracellular) solution containing (in mM): 130 KCl, 11 EGTA, 5 Mg-ATP, and 10 HEPES, pH to 7.4 and with the bath (extracellular) solution containing (in mM): 140 NaCl, 2 CaCl2, and 10 HEPES, pH to 7.4. The inward currents of T-type calcium channels were evoked by the test pulses of −30 mV for 50 ms at a holding potential of −100 mV every 10 seconds.
Each compound was dissolved in dimethylsulfoxide (DMSO) as 10 mM stock solutions and diluted in the bath solution to 10 μM (containing 0.1% DMSO). […] More specifically, each compound was perfused to the bath for about 30-60 seconds, and the inhibition of the inward peak currents by a test compound was calculated as a percent inhibition from which the IC50 values were determined.

Compound	inhibition at 10 µM [1]	other results
O=C(CCn1ccnc1-c1ccccc1)NCCN1CCN(C(c2ccccc2)c2ccccc2)CC1	60.8%	inhibition at 100 µM [2]: 29.1 ± 1.7%; IC50 [3]: 18 ± 0.92 µM
1-N-[4-(4-chlorophenyl)(phenyl)methylpiperazin-1-yl]carbonylethyl-2-methylimidazole [Compound No. 46]	–	FDSS (%, 10 μM) [1]: 51.94%; HEK293 (%, 100 μM) [2]: 67.6 ± 1.3%; IC50 [3]: 4.97 ± 0.18 µM
1-N-{2-[4-(2,3-dimethylphenyl)(phenyl)methylpiperazin-1-yl]ethyl}carbamoylethyl-4-phenylimidazole [Compound No. 56]	–	FDSS (%, 10 μM) [1]: 35.38%
1-N-{2-[4-(4-chlorophenyl) (phenyl)methylpiperazin-1-yl]ethyl}carbamoylethyl-2-methylimidazole [Compound No. 93]	–	FDSS (%, 10 μM) [1]: 43.04%; IC50 [3]: 9.55 ± 8.7 µM
1-N-{2-[4-(4-chlorophenyl) (phenyl)methylpiperazin-1-yl]ethyl}carbamoylethyl-4-methylimidazole [Compound No. 94]	–	FDSS (%, 10 μM) [1]: 55.99%; IC50 [3]: 6.77 ± 1.45 µM
O=C(CCn1ccnc1-c1ccccc1)N1CCN(Cc2ccc(F)cc2)CC1 [Compound No. 21, 1-N-[4-(4-fluorobenzyl)piperazin-1-yl]carbonylethyl-2-phenylimidazole]	36.8%	–
O=C(CCn1ccnc1-c1ccccc1)N1CCN(c2cccc(Cl)c2)CC1 [Compound No. 26, 1-N-[4-(3-chlorophenyl)piperazin-1-yl]carbonylethyl-2-phenylimidazole]	35.1%	–
COc1ccc(N2CCN(C(=O)CCn3cnc(-c4ccccc4)c3)CC2)cc1 [Compound No. 27, 1-N-[4-(4-methoxyphenyl)piperazin-1-yl]carbonylethyl-4-phenylimidazole]	37.8%	–
Cc1nccn1CCC(=O)N1CCN(C(c2ccccc2)c2ccccc2)CC1 [Compound No. 35, 1-N-(4-diphenylmethylpiperazin-1-yl)carbonylethyl-2-methylimidazole]	35%	–
Cc1ccc(N2CCN(C(=O)CCn3cnc(C)c3)CC2)c(C)c1 [Compound No. 38, 1-N-[4-(2,4-dimethylphenyl)piperazin-1-yl]carbonylethyl-4-methylimidazole]	33.8%	–
Cc1ccc(N2CCN(CCNC(=O)CCn3cnc(-c4ccccc4)c3)CC2)c(C)c1 [Compound No. 61, 1-N-{2-[4-(2,4-dimethylphenyl)piperazin-1-yl]ethyl}carbamoylethyl-4-phenylimidazole]	44.9%	–
Cc1ccc(N2CCN(CCNC(=O)CCn3ccnc3-c3ccccc3)CC2)c(C)c1 [Compound No. 62, 1-N-{2-[4-(2,4-dimethylphenyl)piperazin-1-yl]ethyl}carbamoylethyl-2-phenylimidazole]	40.5%	–
Cc1cccc(CN2CCN(CCNC(=O)CCn3ccnc3-c3ccccc3)CC2)c1 [Compound No. 68, 1-N-{2-[4-(3-methylbenzyl)piperazin-1-yl]ethyl}carbamoylethyl-2-phenylimidazole]	31.1%	–
O=C(CCn1cnc(-c2ccccc2)c1)NCCN1CCN(c2ccccc2)CC1 [Compound No. 71, 1-N-[2-(4-phenylpiperazin-1-yl)ethyl]carbamoylethyl-4-phenylimidazole]	30.7%	–
O=C(CCn1cnc(-c2ccccc2)c1)NCCN1CCN(c2ccc(F)cc2)CC1 [Compound No. 73, 1-N-{2-[4-(4-fluorophenyl)piperazin-1-yl]ethyl}carbamoylethyl-4-phenylimidazole]	41.7%	–
COc1ccc(N2CCN(CCNC(=O)CCn3cnc(-c4ccccc4)c3)CC2)cc1 [Compound No. 75, 1-N-{2-[4-(4-methoxyphenyl)piperazin-1-yl]ethyl}carbamoylethyl-4-phenylimidazole]	33%	–
Cc1nccn1CCC(=O)NCCN1CCN(C(c2ccccc2)c2ccccc2)CC1 [Compound No. 96, 1-N-[2-(4-diphenylmethylpiperazin-1-yl)ethyl]carbamoylethyl-2-methylimidazole]	41.4%	IC50 [3]: 0.39 ± 0.28 µM
COc1ccc(CN2CCN(CCNC(=O)CCn3ccnc3C)CC2)cc1 [Compound No. 98, 1-N-{2-[4-(4-methoxybenzyl)piperazin-1-yl]ethyl}carbamoylethyl-2-methylimidazole]	33.8%	–

The next lines start with results.

inhibition at 10 µM [1]	Compound	other results
33.5%	O=C(CCn1cnc(-c2ccccc2)c1)N1CCN(Cc2ccccc2)CC1 [Compound No. 2, 1-N-(4-benzylpiperazin-1-yl)carbonylethyl-4-phenylimidazole]	–
34.4%	Cc1cccc(N2CCN(C(=O)CCn3ccnc3-c3ccccc3)CC2)c1C [Compound No. 15, 1-N-[4-(2,3-dimethylphenyl)piperazin-1-yl]carbonylethyl-2-phenylimidazole]	–
34.3%	Cc1ccc(N2CCN(C(=O)CCn3ccnc3-c3ccccc3)CC2)c(C)c1 [Compound No. 16, 1-N-[4-(2,4-dimethylphenyl)piperazin-1-yl]carbonylethyl-2-phenylimidazole]	–
23.4%	CCN1CCN(C(=O)CCn2ccnc2-c2ccccc2)CC1 [Compound No. 23, 1-N-(4-ethylpiperazin-1-yl)carbonylethyl-2-phenylimidazole]	–
42.2%	O=C(CCn1cnc(-c2ccccc2)c1)N1CCN(c2ccccc2)CC1 [Compound No. 53, 1-N-(4-phenylpiperazin-1-yl)carbonylethyl-4-phenylimidazole]	IC50 [3]: 0.00046 µM
24.2%	O=C(CCn1ccnc1-c1ccccc1)N1CCN(c2ccccc2)CC1 [Compound No. 54, 1-N-(4-phenylpiperazin-1-yl)carbonylethyl-2-phenylimidazole]	–
39.2%	Cc1cccc(CN2CCN(CCNC(=O)CCn3cnc(-c4ccccc4)c3)CC2)c1 [Compound No. 67, 1-N-{2-[4-(3-methylbenzyl)piperazin-1-yl]ethyl}carbamoylethyl-4-phenylimidazole]	–
36.7%	O=C(CCn1cnc(-c2ccccc2)c1)NCCN1CCN(Cc2ccc(F)cc2)CC1 [Compound No. 70, 1-N-{2-[4-(4-fluorobenzyl)piperazin-1-yl]ethyl}carbamoylethyl-4-phenylimidazole]	–
36.9%	O=C(CCn1cnc(-c2ccccc2)c1)NCCN1CCN(c2cccc(Cl)c2)CC1 [Compound No. 79, 1-N-{2-[4-(3-chlorophenyl)piperazin-1-yl]ethyl}carbamoylethyl-4-phenylimidazole]	–
